Experiments:
[1] = test system: VDBA14 aptamer, immobilized on microarray (DNA, aptamer) AGCAGCACAGAGGTCATGGGGGGTGTGACTTTGGTGTGCCTATGCGTGCTACGGAA; test: microarray fluorescence, displacement of Cy5-oligonucleotide; conditions: 100 mM NaCl, 5 mM KCl, 2 mM MgCl2, 1 mM CaCl2; 20 mM Tris-HCl pH 7.6; tracer displaced: 50 nM 5'-Cy5-AAAGTCACAC (O3); 78% maximal reduction at 2 μM
[2] = test system: VDBA14 aptamer, 5'-Cy5-labeled (DNA, aptamer) AGCAGCACAGAGGTCATGGGGGGTGTGACTTTGGTGTGCCTATGCGTGCTACGGAA; test: microscale thermophoresis; conditions: 100 mM NaCl, 5 mM KCl, 2 mM MgCl2, 1 mM CaCl2, 20 mM Tris-HCl pH 7.6, 10% ethanol, 35 °C
[3] = test system: VDBA14 aptamer, 5'-NH2-modified (in solution) (DNA, aptamer) AGCAGCACAGAGGTCATGGGGGGTGTGACTTTGGTGTGCCTATGCGTGCTACGGAA; test: microscale thermophoresis, displacement of Cy5-oligonucleotide; conditions: 100 mM NaCl, 5 mM KCl, 2 mM MgCl2, 1 mM CaCl2, pH 7.6, 35 °C, tracer displaced: 10 nM 5'-Cy5-AAAGTCACAC (O3), 10 nM aptamer

Row | binding [1] | Kd ([2]; no binding observed at room temperature) | apparent Kd [3] | binding ([2]; highest concentration 10 μM) | SMILES
1 | yes | 14.99 nM | 1 ± 0.18 nM |  | C=C1CC[C@H](O)C/C1=C/C=C1\CCC[C@]2(C)[C@@H]([C@H](C)CCCC(C)(C)O)CC[C@@H]12
2 |  |  |  | no | C=C1CC[C@H](O)C/C1=C/C=C1\CCC[C@]2(C)[C@@H]([C@H](C)CCCC(C)C)CC[C@@H]12
